PubChem BioAssay AID1963961 (Molecular Pharmacology Branch, DTP, NCI, 2024)

Test system: K98450-129-R-PDC multicell spheroids, viability
Test: Anticancer human tumor K98450-129-R-PDC patient-derived colon adenocarcinoma cell line growth inhibition [PI3K]
Conditions: for IC50: curve of first compound; for viability, T/C: stronger effect = lower value
How it was run: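 We assembled tumor spheroids that included a stromal compartment of HUVEC and MSCs, then exposed them to targeted agents alone and together with PI3K pathway inhibitors. Concentration series descended by half-log from clinically achievable Cmax levels. Viability served as the endpoint.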
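Also: spheroids exposed to agents for seven days before read-out.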

Q: With `Cn1cnc2c(F)c(Nc3ccc(Br)cc3Cl)c(C(=O)NOCCO)cc21` + CC(Nc1ncnc2nc[nH]c12)c1cc2cccc(Cl)c2c(=O)n1-c1ccccc1 as the compound, how does the IC50 (second compound 0.0316 µM) read?
A: 897 nM

Q: What about the IC50 (second compound 0.1 µM) of the same compound?
A: 984 nM

Q: And the IC50 (second compound 0.316 µM)?
A: 909 nM

Q: And the IC50 (second compound 1 µM)?
A: 699 nM

Q: And the IC50 (second compound 3.16 µM)?
A: 822 nM

Q: And the IC50 (second compound 10 µM)?
A: 725 nM

Q: And the viability, T/C (second compound 0.0316 µM, first compound 0.00949 µM)?
A: 95.4%

Q: And the viability, T/C (second compound 0.0316 µM, first compound 0.03 µM)?
A: 99.9%

Q: What about the viability, T/C (second compound 0.0316 µM, first compound 0.0949 µM) of the same compound?
A: 86.3%

Q: What about the viability, T/C (second compound 0.0316 µM, first compound 0.3 µM) of the same compound?
A: 70.7%

Q: And the viability, T/C (second compound 0.0316 µM, first compound 0.949 µM)?
A: 50.1%

Q: And the viability, T/C (second compound 0.0316 µM, first compound 3 µM)?
A: 24.9%

Q: And the viability, T/C (second compound 0.1 µM, first compound 0.00949 µM)?
A: 99.5%

Q: And the viability, T/C (second compound 0.1 µM, first compound 0.03 µM)?
A: 88.6%

Q: And the viability, T/C (second compound 0.1 µM, first compound 0.0949 µM)?
A: 82.2%

Q: And the viability, T/C (second compound 0.1 µM, first compound 0.3 µM)?
A: 91.5%

Q: And the viability, T/C (second compound 0.1 µM, first compound 0.949 µM)?
A: 50.9%

Q: What about the viability, T/C (second compound 0.1 µM, first compound 3 µM) of the same compound?
A: 24.2%

Q: What about the viability, T/C (second compound 0.316 µM, first compound 0.00949 µM) of the same compound?
A: 100%

Q: What about the viability, T/C (second compound 0.316 µM, first compound 0.03 µM) of the same compound?
A: 103%

Q: And the viability, T/C (second compound 0.316 µM, first compound 0.0949 µM)?
A: 80.2%

Q: And the viability, T/C (second compound 0.316 µM, first compound 0.3 µM)?
A: 65%

Q: What about the viability, T/C (second compound 0.316 µM, first compound 0.949 µM) of the same compound?
A: 57.2%

Q: And the viability, T/C (second compound 0.316 µM, first compound 3 µM)?
A: 16%

Q: And the viability, T/C (second compound 1 µM, first compound 0.00949 µM)?
A: 89.8%

Q: And the viability, T/C (second compound 1 µM, first compound 0.03 µM)?
A: 78.4%

Q: What about the viability, T/C (second compound 1 µM, first compound 0.0949 µM) of the same compound?
A: 77.3%

Q: And the viability, T/C (second compound 1 µM, first compound 0.3 µM)?
A: 71.7%

Q: What about the viability, T/C (second compound 1 µM, first compound 0.949 µM) of the same compound?
A: 41.9%

Q: What about the viability, T/C (second compound 1 µM, first compound 3 µM) of the same compound?
A: 22.2%

Q: And the viability, T/C (second compound 3.16 µM, first compound 0.00949 µM)?
A: 92.8%

Q: What about the viability, T/C (second compound 3.16 µM, first compound 0.03 µM) of the same compound?
A: 80.4%

Q: And the viability, T/C (second compound 3.16 µM, first compound 0.0949 µM)?
A: 80.9%

Q: What about the viability, T/C (second compound 3.16 µM, first compound 0.3 µM) of the same compound?
A: 57.9%

Q: And the viability, T/C (second compound 3.16 µM, first compound 0.949 µM)?
A: 55.9%

Q: What about the viability, T/C (second compound 3.16 µM, first compound 3 µM) of the same compound?
A: 15.5%

Q: What about the viability, T/C (second compound 10 µM, first compound 0.00949 µM) of the same compound?
A: 87.8%

Q: What about the viability, T/C (second compound 10 µM, first compound 0.03 µM) of the same compound?
A: 85.6%

Q: What about the viability, T/C (second compound 10 µM, first compound 0.0949 µM) of the same compound?
A: 70%

Q: And the viability, T/C (second compound 10 µM, first compound 0.3 µM)?
A: 76.4%

Q: And the viability, T/C (second compound 10 µM, first compound 0.949 µM)?
A: 42%

Q: What about the viability, T/C (second compound 10 µM, first compound 3 µM) of the same compound?
A: 14.1%

Q: How did the IC50 (second compound 0.00316 µM) turn out when `CCN1CCN(Cc2ccc(Nc3ncc(F)c(-c4cc(F)c5nc(C)n(C(C)C)c5c4)n3)nc2)CC1` + CC(Nc1ccc2c(c1)OCCn1cc(N3C(=O)OCC3C(F)F)nc1-2)C(N)=O was run?
A: > 1000 nM

Q: What about the IC50 (second compound 0.01 µM) of the same compound?
A: > 1000 nM

Q: And the IC50 (second compound 0.0316 µM)?
A: > 1000 nM

Q: What about the IC50 (second compound 0.1 µM) of the same compound?
A: > 1000 nM

Q: What about the IC50 (second compound 0.316 µM) of the same compound?
A: > 1000 nM

Q: And the IC50 (second compound 1 µM)?
A: > 1000 nM

Q: And the viability, T/C (second compound 0.00316 µM, first compound 0.00316 µM)?
A: 105%

Q: And the viability, T/C (second compound 0.00316 µM, first compound 0.01 µM)?
A: 92.2%

Q: What about the viability, T/C (second compound 0.00316 µM, first compound 0.0316 µM) of the same compound?
A: 104%

Q: What about the viability, T/C (second compound 0.00316 µM, first compound 0.1 µM) of the same compound?
A: 90.3%

Q: What about the viability, T/C (second compound 0.00316 µM, first compound 0.316 µM) of the same compound?
A: 81%

Q: What about the viability, T/C (second compound 0.00316 µM, first compound 1 µM) of the same compound?
A: 82.9%

Q: What about the viability, T/C (second compound 0.01 µM, first compound 0.00316 µM) of the same compound?
A: 117%

Q: And the viability, T/C (second compound 0.01 µM, first compound 0.01 µM)?
A: 90.5%

Q: What about the viability, T/C (second compound 0.01 µM, first compound 0.0316 µM) of the same compound?
A: 98.7%

Q: And the viability, T/C (second compound 0.01 µM, first compound 0.1 µM)?
A: 92.3%

Q: And the viability, T/C (second compound 0.01 µM, first compound 0.316 µM)?
A: 84.9%

Q: And the viability, T/C (second compound 0.01 µM, first compound 1 µM)?
A: 86.9%

Q: And the viability, T/C (second compound 0.0316 µM, first compound 0.00316 µM)?
A: 109%

Q: What about the viability, T/C (second compound 0.0316 µM, first compound 0.01 µM) of the same compound?
A: 100%

Q: What about the viability, T/C (second compound 0.0316 µM, first compound 0.0316 µM) of the same compound?
A: 93.8%

Q: And the viability, T/C (second compound 0.0316 µM, first compound 0.1 µM)?
A: 89.9%

Q: What about the viability, T/C (second compound 0.0316 µM, first compound 0.316 µM) of the same compound?
A: 94.5%

Q: And the viability, T/C (second compound 0.0316 µM, first compound 1 µM)?
A: 92.6%

Q: What about the viability, T/C (second compound 0.1 µM, first compound 0.00316 µM) of the same compound?
A: 92.9%

Q: What about the viability, T/C (second compound 0.1 µM, first compound 0.01 µM) of the same compound?
A: 96.8%

Q: And the viability, T/C (second compound 0.1 µM, first compound 0.0316 µM)?
A: 97.4%

Q: What about the viability, T/C (second compound 0.1 µM, first compound 0.1 µM) of the same compound?
A: 85.5%

Q: And the viability, T/C (second compound 0.1 µM, first compound 0.316 µM)?
A: 83.7%

Q: And the viability, T/C (second compound 0.1 µM, first compound 1 µM)?
A: 82.8%

Q: What about the viability, T/C (second compound 0.316 µM, first compound 0.00316 µM) of the same compound?
A: 90.6%

Q: What about the viability, T/C (second compound 0.316 µM, first compound 0.01 µM) of the same compound?
A: 98.3%

Q: And the viability, T/C (second compound 0.316 µM, first compound 0.0316 µM)?
A: 95.7%

Q: And the viability, T/C (second compound 0.316 µM, first compound 0.1 µM)?
A: 86.5%

Q: What about the viability, T/C (second compound 0.316 µM, first compound 0.316 µM) of the same compound?
A: 85.4%

Q: What about the viability, T/C (second compound 0.316 µM, first compound 1 µM) of the same compound?
A: 79.3%

Q: What about the viability, T/C (second compound 1 µM, first compound 0.00316 µM) of the same compound?
A: 90.5%

Q: And the viability, T/C (second compound 1 µM, first compound 0.01 µM)?
A: 88%

Q: What about the viability, T/C (second compound 1 µM, first compound 0.0316 µM) of the same compound?
A: 86.8%

Q: What about the viability, T/C (second compound 1 µM, first compound 0.1 µM) of the same compound?
A: 82.3%

Q: And the viability, T/C (second compound 1 µM, first compound 0.316 µM)?
A: 83.9%

Q: What about the viability, T/C (second compound 1 µM, first compound 1 µM) of the same compound?
A: 81.6%
